For 38 molecules, IC50 results are on record in US12209081B2 (Katholieke Universiteit Leuven, priority 2020, dated 2025).

The test addresses mouse TRPM3α2 (mTRPM3) ion channel (Mus musculus (Mouse), UniProt J9SQF3). Briefly: TRPM3 ion channel driven Ca2+ uptake, Fluo-4 AM assay, mTRPM3alpha2 overexpressing flip-in HEK293 cells stimulated with pregnenolone sulfate. The format is cell-based. The method, boiled down: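 Flip-in HEK293 cells loaded with Fluo-4 AM were added to plates holding compound plus 50 μM pregnenolone sulfate in Ca2+-containing Krebs buffer. Fluorescence (ex 485/em 535 nm) read directly after cell addition; % inhibition relative to PS-stimulated vehicle and positive-control inhibitor.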

Where [1] appears, read: PS (50 μM) stimulated, cpds. 500-599.
The mark [2] stands for this setting: PS (50 μM) stimulated, cpds. 608-666.
The mark [3] stands for this setting: PS (50 μM) stimulated, cpds. 667-751.
[4] abbreviates: PS (50 μM) stimulated, cpd 001-199.
Setting [5] is: PS (50 μM) stimulated, cpds. 400-499.

Chain of mouse TRPM3α2 (mTRPM3) ion channel (J9SQF3 other isoform, or with tags, fused parts or gaps): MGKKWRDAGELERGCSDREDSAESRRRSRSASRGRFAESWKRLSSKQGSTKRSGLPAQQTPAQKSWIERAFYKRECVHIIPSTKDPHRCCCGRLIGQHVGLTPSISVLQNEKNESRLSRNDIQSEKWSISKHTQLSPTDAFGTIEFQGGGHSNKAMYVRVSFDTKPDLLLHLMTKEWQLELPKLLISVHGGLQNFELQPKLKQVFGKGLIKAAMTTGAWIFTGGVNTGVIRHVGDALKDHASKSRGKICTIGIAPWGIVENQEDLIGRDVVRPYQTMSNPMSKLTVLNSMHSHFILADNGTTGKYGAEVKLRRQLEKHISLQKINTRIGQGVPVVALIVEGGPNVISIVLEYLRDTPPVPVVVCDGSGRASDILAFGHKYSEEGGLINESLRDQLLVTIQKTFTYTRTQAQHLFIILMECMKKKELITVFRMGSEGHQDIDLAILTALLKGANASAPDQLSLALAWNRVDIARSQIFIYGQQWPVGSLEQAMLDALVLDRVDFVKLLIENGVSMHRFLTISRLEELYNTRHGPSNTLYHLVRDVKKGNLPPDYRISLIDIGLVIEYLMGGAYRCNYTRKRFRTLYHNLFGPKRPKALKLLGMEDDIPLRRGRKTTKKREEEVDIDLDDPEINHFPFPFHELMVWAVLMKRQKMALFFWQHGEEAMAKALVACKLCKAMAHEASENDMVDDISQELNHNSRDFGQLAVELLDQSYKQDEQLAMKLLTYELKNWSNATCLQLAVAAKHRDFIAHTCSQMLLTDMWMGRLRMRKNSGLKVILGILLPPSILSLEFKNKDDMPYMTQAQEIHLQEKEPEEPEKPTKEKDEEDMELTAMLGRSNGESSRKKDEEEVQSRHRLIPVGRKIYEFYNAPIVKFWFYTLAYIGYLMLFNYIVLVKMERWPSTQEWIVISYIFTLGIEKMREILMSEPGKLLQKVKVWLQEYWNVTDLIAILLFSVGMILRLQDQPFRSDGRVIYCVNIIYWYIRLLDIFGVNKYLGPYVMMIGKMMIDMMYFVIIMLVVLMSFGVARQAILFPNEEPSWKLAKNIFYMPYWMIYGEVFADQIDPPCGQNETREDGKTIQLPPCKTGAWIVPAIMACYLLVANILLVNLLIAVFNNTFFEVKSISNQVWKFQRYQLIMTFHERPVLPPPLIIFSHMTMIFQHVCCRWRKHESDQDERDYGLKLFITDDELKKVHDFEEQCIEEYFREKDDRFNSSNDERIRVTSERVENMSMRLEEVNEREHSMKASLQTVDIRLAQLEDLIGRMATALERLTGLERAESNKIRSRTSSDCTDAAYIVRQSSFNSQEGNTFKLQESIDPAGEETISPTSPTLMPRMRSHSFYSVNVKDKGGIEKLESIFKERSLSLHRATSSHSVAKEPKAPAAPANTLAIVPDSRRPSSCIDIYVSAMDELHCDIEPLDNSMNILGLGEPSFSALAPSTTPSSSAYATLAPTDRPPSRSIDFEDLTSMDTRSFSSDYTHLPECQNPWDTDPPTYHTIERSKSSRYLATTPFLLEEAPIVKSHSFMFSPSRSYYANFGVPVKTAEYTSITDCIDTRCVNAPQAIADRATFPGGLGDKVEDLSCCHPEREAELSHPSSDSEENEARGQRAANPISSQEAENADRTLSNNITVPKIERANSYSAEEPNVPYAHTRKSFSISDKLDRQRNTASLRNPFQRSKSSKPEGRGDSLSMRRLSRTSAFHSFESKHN

In turn, `Cc1oc2ccc(OCc3ncsc3C)cc2c1C(=O)N[C@@H](CO)C(N)=O` [compound 290, (S)-N-(1-amino-3-hydroxy-1-oxopropan-2-yl)-2-methyl-5-((5-methylthiazol-4-yl)methoxy)benzofuran-3-carboxamide] returned an IC50 (PS 50 μM, cpds 200-299) of under 1 µM. On to `Cc1oc2ccc(OCc3ccnn3C)cc2c1C(=O)NC1(C(N)=O)COC1` [compound 579, N-(3-carbamoyloxetan-3-yl)-2-methyl-5-((1-methyl-1H-pyrazol-5-yl)methoxy)benzofuran-3-carboxamide], for which, under setting [1], the IC50 is under 1 µM. The molecule `COc1ncccc1COc1ccc2oc(C)c(C(=O)NC3CNCC3(F)F)c2c1` (centres unmarked) [compound 663, N-(4,4-difluoropyrrolidin-3-yl)-5-((2-methoxypyridin-3-yl)methoxy)-2-methylbenzofuran-3-carboxamide] showed an IC50 under setting [2] of under 1 µM. For `Cc1ncoc1COc1ccc2oc(C)c(C(=O)N[C@@H](CO)C(N)=O)c2c1` [compound 680, (S)-N-(1-Amino-3-hydroxy-1-oxopropan-2-yl)-2-methyl-5-((4-methyloxazol-5-yl)methoxy)benzofuran-3-carboxamide], the IC50 under setting [3] was under 1 µM. With `Cc1oc2ccc(OCc3ccc(F)cn3)cc2c1C(=O)NC1CCNCC1(F)F` (single isomer, unassigned) [cpd 568-En 2], the IC50 under setting [1] fell in the range of 1 to 20 µM. Under setting [1], `Cc1ncsc1COc1ccc2oc(C)c(C(=O)NC3(C(N)=O)COC3)c2c1F` [compound 583, N-(3-carbamoyloxetan-3-yl)-4-fluoro-2-methyl-5-((4-methylthiazol-5-yl)methoxy)benzofuran-3-carboxamide] came in with an IC50 of under 1 µM. The molecule `Cc1oc2ccc(OCc3cccnc3C(F)(F)F)cc2c1C(=O)NC1(CO)CCOC1` (single isomer, unassigned) [cpd 135-En 1] gave an IC50 under setting [4] of under 1 µM. For `Cc1oc2ccc(OCc3cccnc3O)cc2c1C(=O)NC1CNCCC1(F)F` (single isomer, unassigned) [cpd 637-En 1], under setting [2], the IC50 was under 1 µM.

With `Cc1oc2ccc(OCc3cccnc3C(F)(F)F)cc2c1C(=O)N[C@@H]1CN(C(=O)OCC(F)(F)F)CC1(F)F` [compound 175, 2,2,2-trifluoroethyl (R)-3,3-difluoro-4-(2-methyl-5-((2-(trifluoromethyl)pyridin-3-yl)methoxy) -benzofuran-3-carboxamido)pyrrolidine-1-carboxylate], the IC50 under setting [4] is under 1 µM. On to `Cc1ncc(COc2ccc3oc(C4CC4)c(C(=O)N[C@@H](CO)C(N)=O)c3c2)s1` [compound 749, (S)-N-(1-Amino-3-hydroxy-1-oxopropan-2-yl)-2-cyclopropyl-5-((2-methylthiazol-5-yl)methoxy)benzofuran-3-carboxamide], for which, under setting [3], the IC50 is under 1 µM. The molecule `Cc1ncsc1COc1cc2c(C(=O)NC3(CO)CCOCC3)c(C)oc2cc1C#N` [compound 194, 6-cyano-N-(4-(hydroxymethyl)tetrahydro-2H-pyran-4-yl)-2-methyl-5-((4-methylthiazol-5-yl) -methoxy)benzofuran-3-carboxamide] yielded an IC50 under setting [4] of over 20 µM. Turning to `Cc1ncsc1COc1ccc2oc(C)c(C(=O)NCC3(F)CCOCC3)c2c1` [compound 394, N-((4-fluorotetrahydro-2H-pyran-4-yl)methyl)-2-methyl-5-((4-methylthiazol-5-yl)methoxy)benzofuran-3-carboxamide], the IC50 (PS 50 μM, cpds 300-399) is under 1 µM. As for `Cc1oc2ccc(OCc3cccnc3C(F)(F)F)cc2c1C(=O)OCC1(N)CCOC1` (centres unmarked) [compound 170, (3-aminotetrahydrofuran-3-yl)methyl 2-methyl-5-((2-(trifluoromethyl)pyridin-3-yl)methoxy) -benzofuran-3-carboxylate], under setting [4], the IC50 was under 1 µM. On to `Cc1oc2ccc(OCc3cccnc3O)cc2c1C(=O)N[C@@H](C)CO` [compound 494, (S)-N-(1-hydroxypropan-2-yl)-5-((2-hydroxypyridin-3-yl)methoxy)-2-methylbenzofuran-3-carboxamide], for which the IC50 under setting [5] was under 1 µM. On to `Cc1oc2ccc(OCc3cn(C)nn3)cc2c1C(=O)NC1CCNCC1(F)F` (single isomer, unassigned) [cpd 540-En 2], for which, under setting [1], the IC50 is over 20 µM. `Cc1oc2ccc(OCc3cccc(N(C)C)n3)cc2c1C(=O)NC1CCNCC1(F)F` (centres unmarked) [compound 071, N-(3,3-difluoropiperidin-4-yl)-5-((6-(dimethylamino)pyridin-2-yl)methoxy)-2-methylbenzofuran-3-carboxamide] displayed an IC50 under setting [4] of under 1 µM. Take `Cc1oc2ccc(OCc3cccnc3O)cc2c1C(=O)NC1(CO)CCC1` [compound 416, N-(1-(hydroxymethyl)cyclobutyl)-5-((2-hydroxypyridin-3-yl)methoxy)-2-methylbenzofuran-3-carboxamide]: under setting [5], the IC50 is under 1 µM. `Cc1oc2ccc(OCc3nccn3C)cc2c1C(=O)NC1(CO)CCOCC1` [compound 204, N-(4-(hydroxymethyl)tetrahydro-2H-pyran-4-yl)-2-methyl-5-((1-methyl-1H-imidazol-2-yl) -methoxy)benzofuran-3-carboxamide]: the IC50 (PS 50 μM, cpds 200-299) is under 1 µM. Turning to `Cc1oc2ccc(OCC3CCN(C(=O)OC(C)(C)C)C3)cc2c1C(=O)O` (centres unmarked) [compound 019, 5-((1-(tert-butoxycarbonyl)pyrrolidin-3-yl)methoxy)-2-methylbenzofuran-3-carboxylic acid], the IC50 under setting [4] was over 20 µM. `Cc1oc2ccc(OCc3cccnc3O)cc2c1C(=O)N[C@H](C)CO` [compound 495, (R)-N-(1-hydroxypropan-2-yl)-5-((2-hydroxypyridin-3-yl)methoxy)-2-methylbenzofuran-3-carboxamide] registered an IC50 under setting [5] of under 1 µM. For the molecule `Cc1ncsc1COc1ccc2oc(C)c(C(=O)NC3CCNC3=O)c2c1` (centres unmarked) [compound 042, 2-methyl-5-((4-methylthiazol-5-yl)methoxy)-N-(2-oxopyrrolidin-3-yl)benzofuran-3-carboxamide], the IC50 under setting [4] was under 1 µM.

Take `Cc1cnc(COc2ccc3oc(C)c(C(=O)NC4CCNCC4(F)F)c3c2)cn1` (single isomer, unassigned) [cpd 554-En 2]: the IC50 under setting [1] was over 20 µM. Regarding `Cc1oc2ccc(OCc3ccccn3)cc2c1C(=O)NC1(CO)COC1` [compound 526, N-(3-(hydroxymethyl)oxetan-3-yl)-2-methyl-5-(pyridin-2-ylmethoxy)benzofuran-3-carboxamide], the IC50 under setting [1] was under 1 µM. For `Cc1ncsc1COc1ccc2oc(C)c(C(=O)NC3(CO)CC(F)(F)C3)c2c1` [compound 537, N-(3,3-difluoro-1-(hydroxymethyl)cyclobutyl)-2-methyl-5-((4-methylthiazol-5-yl)methoxy)benzofuran-3-carboxamide], the IC50 under setting [1] is under 1 µM.

`CNC(=O)C1(NC(=O)c2c(C)oc3ccc(OCc4cnc(C)s4)cc23)CCC1` [compound 318, 2-methyl-N-(1-(methylcarbamoyl)cyclobutyl)-5-((2-methylthiazol-5-yl)methoxy)benzofuran-3-carboxamide]: the IC50 (PS 50 μM, cpds 300-399) is under 1 µM. Under setting [3], `Cc1oc2ccc(OCc3ccc(F)cn3)cc2c1C(=O)NC(C)(CO)C(N)=O` (single isomer, unassigned) [cpd 739-En 1] yielded an IC50 of under 1 µM. For the molecule `Cc1oc2ccc(OCc3cccnc3C(N)=O)cc2c1C(=O)NC1(CO)CCOCC1` [compound 325], where the note is “PS 50 μM, cpds 300-399”, the IC50 was 1 to 20 µM. With `COc1ncccc1COc1cc2c(C(=O)NC3(CO)CCOCC3)c(C)oc2cc1F` [compound 364, 6-fluoro-N-(4-(hydroxymethyl)tetrahydro-2H-pyran-4-yl)-5-((2-methoxypyridin-3-yl)methoxy)-2-methylbenzofuran-3-carboxamide], where the note is “PS 50 μM, cpds 300-399”, the 50% inhibitory concentration (IC50) is under 1 µM. With `Cc1oc2ccc(OCc3nccn3C)cc2c1C(=O)NC(C)(CO)CO` [compound 422, N-(1,3-dihydroxy-2-methylpropan-2-yl)-2-methyl-5-((1-methyl-1H-imidazol-2-yl)methoxy)benzofuran-3-carboxamide], the IC50 under setting [5] was under 1 µM. Molecule `Cc1oc2ccc(OCc3cccnc3C(F)(F)F)c(C)c2c1C(=O)NC1CCNCC1(F)F` (single isomer, unassigned) [cpd 538-En 1] showed an IC50 under setting [1] of 1 to 20 µM.

`Cc1ncsc1COc1ccc2oc(C)c(C(=O)NC3(CO)CCOC3)c2c1` (single isomer, unassigned) [cpd 132-En 1] registered an IC50 under setting [4] of under 1 µM. `Cc1ncc(COc2ccc3oc(C)c(C(=O)NC4CCS(=N)(=O)C4)c3c2)s1` (single isomer, unassigned) [cpd 727-En 1] showed an IC50 under setting [3] of 1 to 20 µM. Regarding `Cc1ncsc1COc1ccc2oc(C)c(C(=O)NC3(C(N)=O)CC(F)(F)C3)c2c1` [compound 470, N-(1-carbamoyl-3,3-difluorocyclobutyl)-2-methyl-5-((4-methylthiazol-5-yl)methoxy)benzofuran-3-carboxamide], the half-maximal inhibitory concentration (IC50) under setting [5] was under 1 µM.

The molecule `Cc1oc2ccc(OCc3c(F)cnn3C)cc2c1C(=O)N[C@H](C(N)=O)[C@@H](C)O` [compound 383, N-((2S,3R)-1-amino-3-hydroxy-1-oxobutan-2-yl)-5-((4-fluoro-1-methyl-1H-pyrazol-5-yl)methoxy)-2-methylbenzofuran-3-carboxamide] returned an IC50 (PS 50 μM, cpds 300-399) of under 1 µM. In the case of `Cc1ncsc1COc1ccc2oc(C(F)F)c(C(=O)NC3CCNCC3(F)F)c2c1` (single isomer, unassigned) [cpd 310-En 1], the IC50 (PS 50 μM, cpds 300-399) was under 1 µM. `Cc1oc2ccc(OCc3ccsc3)cc2c1C(=O)NC1CCNC1=O` (centres unmarked) [compound 035, 2-methyl-N-(2-oxopyrrolidin-3-yl) -5-(thiophen-3-ylmethoxy)benzofuran-3-carboxamide] had an IC50 under setting [4] of under 1 µM. With `COc1ncccc1COc1ccc2oc(C)c(C(=O)NC(C)(CO)CO)c2c1` [compound 431, N-(1,3-dihydroxy-2-methylpropan-2-yl)-5-((2-methoxypyridin-3-yl)methoxy)-2-methylbenzofuran-3-carboxamide], the IC50 under setting [5] is under 1 µM. With `Cc1oc2ccc(OCc3nccn3C)cc2c1C(=O)NC1CCNCC1(F)F` (single isomer, unassigned) [cpd 205-En 2], the IC50 (PS 50 μM, cpds 200-299) was under 1 µM.
